Results taken from patent publication US6605712B1, “Gene transcription and ionizing radiation: methods and compositions” (Arch Development Corporation, priority 1990, dated 2003).
“Also recorded” adds a separate entry of the source.

Tests used:
[1] = system: HL-525 cells; assay: Northern analysis of c-Jun mRNA; assay type: cell-based, human
Description: (§1) Cell culture. Clone HL-205 was isolated from the human HL-60 myeloid leukemia cell line. The phorbol ester-resistant variant of HL-60 cells, designated HL-525, was isolated by exposing wild-type cells to low concentrations of 12-0-tetradecanoylphorbol-13-acetate (TPA; 0.5 to 3 nM) for 102 passages. These cells were maintained in RPMI 1640 medium containing 20% fetal bovine serum (FBS) with 1 mM L-glutamine, 100 U/ml penicillin and 100 μg/ml streptomycin. Irradiation was performed at room temperature using a Gamma cell 1000 (Atomic Energy at Canada Ltd., Ontario) with a ^137CS source emitting at a fixed dose rate of 14.3 Gray (Gy)/min as determined by dosimetry.
(§2) Isolation and analysis of RNA. Total cellular RNA was purified by the guanidine isothiocyanate-cesium chloride technique. The RNA was analyzed by electrophoresis through 1% agarose-formaldehyde gels, transferred to nitrocellulose filters, and hybridized to the following 32P-labeled DNA probes: 1) the 1.8-kb BamHI/EcoRI insert of a human c-Jun gene purified from a pBluescript SK(+) plasmid; 2) the 1.5-kb EcoRI fragment of the murine Jun-B cDNA from the p465.20 plasmid; 3) Jun-D; 4) the 0.9-kb ScaI/NcoI insert of human c-fos gene purified from the pc-fos-1 plasmid; 5) the 2.0-kb PstI insert of a chicken β-actin gene purified from the pA1 plasmid; and 6) the 1.9-kb BamHI/PstI insert of a human TNF cDNA purified from the pE4 plasmid. Hybridizations were performed at 42° C. for 24 h in 50% (v/v) formamide, 2×SSC, 1×Denhardt's solution, 0.1% SDS, and 200 μg/ml salmon sperm DNA. The filters were washed twice in 2×SSC-0.1% SDS at room temperature and then in 0.1×SSC-0.1% SDS at 60° C. for 1 hour.

[2] = system: HL-205 cells; assay: Northern analysis of c-Jun mRNA; assay type: cell-based, human
Description: as §1, §2

[3] = system: HL-525 cells; assay: Nuclear run-on assay of c-Jun transcription; assay type: cell-based, human; conditions: radiation alone 4-fold increase
Description: Nuclear run-on assays. Nuclei were isolated from 10^8 cells and suspended in 100 μl glycerol buffer (50 mM Tris-HCl, pH 8.3, 40% glycerol, 5 mM MgCl2, and 0.1 mM EDTA). An equal volume of reaction buffer (10 mM Tris-HCl, ph 8.0, 5 mM MgCl2, 100 mM KCl, 1 mM ATP, 1 mM CTP, 1 mM GTP, and 5 mM dithiothreitol) was added to the nuclei in suspension and incubated at 26° C. for 30 min with 250 μCi [α-^32P]UTP (3000 Ci/mmol; Dupont, Boston, Mass.). The nuclear RNA was isolated as described and hybridized to the following DNAs: 1) a PstI digest of the pA1 plasmid containing a fragment of the chicken β-action gene; and 2) a BamHI/EcoRI digest of the pBluescript SK(+) plasmid containing a fragment of the human c-Jun gene. The digested DNAs were run in 1% agarose gels and transferred to nitrocellulose filters. Hybridizations were performed with 10^7 cpm of ^32P-labeled RNA/ml in 10 mM Tris-HCl, ph 7.5, 4×SSC, 1 mM EDTA, 0.1% SDS, 2×Denhardt's solution, 40% formamide, and 100 μg/ml yeast tRNA for 72 h at 42° C. The filters were washed in: a) 2×SSC-0.1% SDS at 37° C. for 30 min; b) 200 ng/ml RNase A in 2×SSC at room temperature for 5 min; and c) 0.1×SSC-0.1% SDS at 42° C. for 30 min.

[4] = system: Egr-1 and Jun transcripts in cell lines 293 and SQ-20B; assay: Northern blot of Egr-1 and Jun transcripts after x-irradiation with inhibitors; assay type: cell-based; conditions: for effect on x-ray-induced increase in Egr-1 and Jun transcripts: treatment prior to irradiation
Description: Cell line SQ-20B was pretreated with 1 μM TPA for 40 hours to down regulate PKC and then stimulated with TPA, serum, or x-ray (20 Gy). Controls included x-ray without TPA pretreatment, TPA (50 nM) without TPA pretreatment and untreated cells. RNA was isolated after one hour and hybridized to Egr-1. SQ-20B cells were preincubated with 100 μM H7 (1-(5-isoquinolinylsulfonyl)-2-methyl piperazine) or 100 μM HA1004 (N-[2-methyl-amino]ethyl)-5-isoquino-linesulfonamide) (Seikagaku America, Inc., St. Petersberg, Fla.) for 30 minutes or TPA pretreatment (1 μM) for 40 hours and followed by exposure to 20 Gy x-irradiation. RNA was extracted one hour after irradiation. Positive control cells treated under the same conditions but in the absence of inhibitor also received 20 Gy, while negative control cells received neither H7 nor X-ray. RNA was extracted at one hour after 20 Gy without inhibitor. Northern blots were hybridized to Egr-1 or 7S. 293 cells pretreated with the above inhibitors were irradiated, RNA was extracted after 3 hours and the Northern blot was hybridized to Jun and 7S probes.

[5] = system: RIT-3 cells; assay: GAL4-Jun chimeric / G5BCAT co-transfection CAT assay; assay type: cell-based, human
Excerpt: HeLa and RIT-3 cells were transfected with two plasmids. Plasmid pSG-Jun5-253 contained the SV40 promoter (not transcriptionally responsive to radiation) upstream of an encoding region that encoded a chimeric protein (GAL4-Jun) comprising a sequence for Δ, A1, and A2 (Baichwal, 1990) and the DNA binding domain of the yeast GAL4 gene (the DNA binding domain of Jun was replaced with the DNA binding domain of the GAL4 gene, Baichwal, 1990). A second plasmid, G5BCAT was constructed to contain the DNA sequence that binds Gal4 protein placed 5′ of the Elb TATA box and upstream of the CAT reporter gene (Baichwal, 1990).
Two plasmids were transfected into HeLa and RIT-3 cells to study activation of the transcriptional potential of Jun protein following irradiation. pSG-Jun5-253 contains the SV40 promoter, which is not transcriptionally responsive to radiation, upstream of the coding sequence for Δ, A1, and A2 (Baichwal, 1990). The DNA binding domain of Jun was replaced with the DNA binding domain of the yeast GAL4 gene which encodes a protein involved in yeast transcriptional regulation (Baichwal, 1990). A second plasmid, G5BCAT contains the DNA sequence which binds Gal4 protein placed 5′ of the E1b TATA box upstream of the CAT reporter gene (Baichwal, 1990). […]

[6] = system: c-Jun gene expression; conditions: other studies; cited from earlier work
[7] = system: cell line SQ-20B; assay: Colony-forming radiation-survival assay with TNF-α; assay type: cell-based, human
[8] = system: cell line HNSCC-68; assay: Colony-forming radiation-survival assay with TNF-α; assay type: cell-based, human; conditions: nonlethal TNF-α 10 units/ml
[9] = system: 12 human epithelial tumor cell lines; conditions: cited from earlier work
[10] = system: TNF-α-producing sarcomas (STSAR-5, -13, -33, and -43)
[11] = system: SQ-20B and SCC-61 cells
[12] = system: cell line STSAR-33; assay: Colony-forming radiation-survival assay with TNF-α; assay type: cell-based, human
[13] = system: cell line STSAR-5; assay: Colony-forming radiation-survival assay with TNF-α; assay type: cell-based, human; conditions: STSAR-5, 100-700 cGy
[14] = system: Cell lines STSAR-13 and STSAR-43; assay: Colony-forming radiation-survival assay with TNF-α; assay type: cell-based, human

CC(=O)N[C@@H](CS)C(=O)O [NAC, N-acetyl-L-cysteine]
effect on H2O2-induced c-Jun expression [1]: similarly inhibited | effect on ara-C-induced c-Jun gene induction [1]: no detectable effect on induction of the c-Jun gene; also recorded: no detectable effect on ara-C-induced increases in c-Jun transcripts | effect on x-ray-induced c-Jun expression [1]: inhibited | effect on constitutive levels of c-Jun transcripts ([2]; 30 mM): little if any effect on constitutive levels of c-Jun transcripts | inhibition of x-ray-induced increases in c-Jun expression ([2]; 30 mM): over 90% | inhibition of radiation-increased rate of c-Jun transcription [3]: ~90%

OO [Plasmid H2O2, H2O2]
effect of agent alone on c-Jun expression [1]: transiently induced c-Jun expression; also recorded: increased c-Jun expression

CC1CNCCN1S(=O)(=O)c1cccc2cnccc12 (centres unmarked) [Plasmid H7, 1-(5-isoquinolinylsulfonyl)-2-methyl piperazine]
effect on x-ray-induced increase in Egr-1 and Jun transcripts [4]: attenuated the increase in Egr-1 and Jun transcripts; also recorded: attenuation of Egr-1 and Jun gene induction by ionizing radiation | effect on x-ray induced increase in CAT activity ([5]; added to RIT-3 cells transfected with pSG-Jun5-235 and G5BCAT): abrogated the x-ray induced increase in CAT activity | effect on x-ray-induced c-Jun expression [6]: block x-ray-induced c-Jun gene product expression; also recorded: inhibited

CCCCCCCCCCCCCC(=O)O[C@@H]1[C@@H](C)[C@@]2(O)[C@@H](C=C(CO)C[C@]3(O)C(=O)C(C)=C[C@@H]23)[C@H]2C(C)(C)[C@]12OC(C)=O [TPA, 12-0-tetradecanoylphorbol-13-acetate]
effect on expression of Jun-B, Jun-D, c-fos, fos-B [1]: little if any effect on expression of these genes | effect on x-ray-induced c-Jun expression [1]: blocks x-ray-induced increases in c-Jun expression | block of H2O2-induced increases in c-Jun expression ([1]; pretreatment): 80% | block of x-ray induced increases in c-Jun expression ([1]; pretreatment 36-39 hours): over 75% | effect on c-Jun expression ([2]; agent alone): increases in c-Jun expression that were detectable at 6 hours and reached maximal levels by 24 hours | effect on x-ray-induced increase in Egr-1 and Jun transcripts [4]: attenuated the increase in Egr-1 and Jun transcripts; also recorded: attenuation of Egr-1 and Jun gene induction by ionizing radiation | increase in CAT activity following TPA stimulation ([5]; HeLa and RIT-3 transfectants with pSG-Jun5-253 and G5BCAT): 3.5 fold

CCC/C=C/C=C/C(=O)O[C@H]1/C(=C/C(=O)OC)C[C@H]2C[C@H]([C@@H](C)O)OC(=O)C[C@H](O)C[C@@H]3C[C@H](OC(C)=O)C(C)(C)[C@](O)(C[C@@H]4C/C(=C/C(=O)OC)C[C@H](/C=C/C(C)(C)[C@]1(O)O2)O4)O3 [bryostatin]
effect on H2O2-induced c-Jun expression [1]: no detectable effect | effect on x-ray-induced c-Jun expression [1]: little if any effect on the induction of c-Jun transcripts by ionizing radiation

C[C@@H]1C[C@@H]([C@H](O)CC2CC(=O)NC(=O)C2)C(=O)[C@@H](C)C1 [cycloheximide]
Jun mRNA after irradiation in pretreated cells ([4]; 293 cells pretreated with CHI): persistent elevation of Jun mRNA at 6 hours | Egr-1 mRNA after irradiation in pretreated cells ([4]; SQ-20B cells pretreated with CHI): persistent elevation of Egr-1 at 3 hours | effect of treatment alone on Egr-1 and Jun transcripts ([4]; normalized to 7S, no irradiation): low but detectable increase in Egr-1 and Jun transcripts | effect on x-ray-induced increase in Egr-1 and Jun transcripts [4]: superinduction of Jun and Egr-1

TNF-α
killing with TNF-α alone ([7]; SQ-20B, FIG. 1B): 85% | radiosensitivity (D0) ([7]; TNF-α 1000 units/ml added 24 hr before x-rays, 239 cGy without TNF-α): 130.4 cGy | effect on cell killing by radiation ([7]; TNF-α added after irradiation): did not enhance cell killing by radiation | effect on radiation killing [8]: enhanced radiation killing | concentrations with cytotoxic effects [9]: 10 to 1000 units/ml | killing by TNF and x-rays combined ([9]; seven of those ten cell lines): synergistic or additive killing | cytotoxicity [10]: cytotoxic | reduction of plating efficiency (PE) ([10]; 1000 units/ml): 60-90% | cytotoxicity [11]: cytotoxic | reduction of plating efficiency (PE) ([11]; 1000 units/ml): 60-80% | interaction between TNF-α and radiation ([12]; STSAR-33, TNF-α 10 units/ml): synergistic; also recorded: enhanced killing by radiation | radiosensitivity (D0) ([12]; TNF-α 10 units/ml added 20 hr before irradiation, 80.4 cGy without TNF-α): 60.4 cGy | plating efficiency (PE) ([12]; TNF-α at 1000 units/ml): 30% | interaction between TNF-α and radiation [13]: additive | interaction between TNF-α and radiation [14]: no interaction was observed
